Results taken from patent US5536732A, “N-derivatives of 1-deoxy nojirimycin” (Merrell Pharmaceuticals Inc., priority 1990, dated 1996).

Legend:
[1] = tested on: HIV-1GB8; assay: Inhibition of syncytia formation in JM cells infected with HIV-1GB8 (3 days incubation, 37° C.); format: cell-based; parameters: unit not given here; conditions: HIV-1GB8, 3 days at 37° C.
Description: (§1) Inhibition of the maturation of envelope glycoproteins gp 160 and gp 120 in human HIV by α-glucosidase I inhibitors result in reductions in infectivity and syncytial formation of the HIV virus. AIDS, Vol. 5(6): 693-698 (1991). Therefore, in order to test the antiviral activity of the compounds of the present invention, the following protocol was followed.
(§2) JM cells were infected with HIV-1GB8 for one hour at room temperature. The cells were then washed and subsequently grown in the presence of varying concentrations of test compound or no compound (control). […] The cell-free supernatant fluid was then titrated for levels of infectivity.
ED50 means 50% effective dose corresponds to the concentration of inhibitor required to lower the syncytia counts by 50%.

[2] = tested on: HIV-1GB8; assay: Infectivity titration of cell-free supernatant from HIV-1GB8 infected JM cells; format: cell-based
Description: as §1, §2
Infectivity is expressed as log10 determined by the highest dilution of cell-free medium at which syncytia was detected. The results in Table 1 were found.

[3] = Human immunodeficiency virus 1, 72 h, Conc 0.06 mM, read-out: % Control
[4] = Human immunodeficiency virus 1, 72 h, Conc 0.125 mM, read-out: % Control
[5] = Conc 0.5 mM, control 10^3 (Example 44) or 10^4 (Example 43)
[6] = Human immunodeficiency virus 1, 72 h, Conc 0.5 mM, read-out: % Control

Structure (SMILES): C[Si](C)(C)CN1C[C@H](O)[C@@H](O)[C@H](O)[C@H]1CO [Example 32, 1,5-dideoxy-1,5-{[(trimethylsilyl)methyl]imino}-D-glucitol]
- ED50 (concentration required to lower the syncytia counts by 50%) [1]: 540

Structure (SMILES): C[Si](C)(C)CCCCN1C[C@H](O)[C@@H](O)[C@H](O)[C@H]1CO [Example 36, 1,5-dideoxy-1,5-{[4-(trimethylsilyl)butyl]imino}-D-glucitol]
- Infectivity (highest dilution of cell-free medium at which syncytia was detected) ([2]; Conc 0.06 mM, control 10^4): 10^3
- Infectivity (highest dilution of cell-free medium at which syncytia was detected) ([2]; Conc 0.125 mM, control 10^4): 10^3
- activity at 60 µM [2, 3]: 73%
- activity at 125 µM [2, 4]: 37%

Structure (SMILES): C[Si](C)(C)/C=C/CN1C[C@H](O)[C@@H](O)[C@H](O)[C@H]1CO [Example 40, 1,5-dideoxy-1,5-{[(E)-3-(trimethylsilyl)-2-propenyl]imino}-D-glucitol]
- Infectivity (highest dilution of cell-free medium at which syncytia was detected) ([2]; Conc 0.06 mM, control 10^4): 10^3
- Infectivity (highest dilution of cell-free medium at which syncytia was detected) ([2]; Conc 0.125 mM, control 10^4): 10^2
- activity at 60 µM [2, 3]: 79%
- activity at 125 µM [2, 4]: 23%
- ED50 (concentration required to lower the syncytia counts by 50%) [1]: 20

Structure (SMILES): C[Si](C)(C)c1cccc(CN2C[C@H](O)[C@@H](O)[C@H](O)[C@H]2CO)c1 [Example 43, 1,5-Dideoxy-1,5-[{[3-(Trimethylsilyl)Phenyl]Methyl}Imino]-D-Glucitol]
- Infectivity (highest dilution of cell-free medium at which syncytia was detected) ([2]; Conc 0.25 mM, control 10^4): 10^4
- Infectivity (highest dilution of cell-free medium at which syncytia was detected) [2, 5]: 10^4
- activity at 250 µM ([2]; Human immunodeficiency virus 1, 72 h, Conc 0.25 mM, read-out: % Control): 100%
- activity at 500 µM [2, 6]: 100%
- ED50 (concentration required to lower the syncytia counts by 50%) [1]: > 250

Structure (SMILES): C[Si](C)(C)CCCN1C[C@H](O)[C@@H](O)[C@H](O)[C@H]1CO [Example 44, 1,5-Dideoxy-1,5-{[3-(trimethylsilyl)propyl]imino}-D-glucitol]
- Infectivity (highest dilution of cell-free medium at which syncytia was detected) [2, 5]: 10^1
- activity at 500 µM [2, 6]: 0%

Structure (SMILES): C[Si](C)(C)c1ccc(CN2C[C@H](O)[C@@H](O)[C@H](O)[C@H]2CO)cc1 [Example 46, 1,5-dideoxy-1,5-[{[4-(trimethylsilyl)phenyl]methyl}imino]-D-glucitol]
- Infectivity (highest dilution of cell-free medium at which syncytia was detected) ([2]; Conc 0.06 mM, control 10^4): 10^3
- Infectivity (highest dilution of cell-free medium at which syncytia was detected) ([2]; Conc 0.125 mM, control 10^4): 10^2
- activity at 60 µM [2, 3]: 55%
- activity at 125 µM [2, 4]: 28%
- ED50 (concentration required to lower the syncytia counts by 50%) [1]: 10

Structure (SMILES): C[Si](C)(C)CCCCCN1C[C@H](O)[C@@H](O)[C@H](O)[C@H]1CO [Example 49, 1,5-dideoxy-1,5-{[5-(trimethylsilyl)pentyl]imino}-D-glucitol]
- Infectivity (highest dilution of cell-free medium at which syncytia was detected) ([2]; Conc 0.006 mM, control 10^3): 10^2
- Infectivity (highest dilution of cell-free medium at which syncytia was detected) ([2]; Conc 0.012 mM, control 10^3): 10^1
- activity at 6 µM ([2]; Human immunodeficiency virus 1, 72 h, Conc 0.006 mM, read-out: % Control): 63%
- activity at 12 µM ([2]; Human immunodeficiency virus 1, 72 h, Conc 0.012 mM, read-out: % Control): 24%

Structure (SMILES): C[Si](C)(C)CCCCCCN1C[C@H](O)[C@@H](O)[C@H](O)[C@H]1CO [Example 52, 1,5-Dideoxy-1,5-{[6-(Trimethylsilyl)Hexyl]Imino}-D-Glucitol]
- ED50 (concentration required to lower the syncytia counts by 50%) [1]: 33

Structure (SMILES): C[Si](C)(CCCCN1C[C@H](O)[C@@H](O)[C@H](O)[C@H]1CO)c1ccccc1 [Example 53, 1,5-dideoxy-1,5-{[4-(dimethylphenylsilyl)butyl]imino}-D-glucitol]
- ED50 (concentration required to lower the syncytia counts by 50%) [1]: 12

Structure (SMILES): C[Si](C)(C)/C=C\CN1C[C@H](O)[C@@H](O)[C@H](O)[C@H]1CO [Example 54, 1,5-dideoxy-1,5-{[(Z)-3-(trimethylsilyl)-2-propenyl]imino}-D-glucitol]
- ED50 (concentration required to lower the syncytia counts by 50%) [1]: 310

Structure (SMILES): CC(C)(C)[Si](C)(C)/C=C/CN1C[C@H](O)[C@@H](O)[C@H](O)[C@H]1CO [Example 55, 1,5-Dideoxy-1,5-{[(E)-3-(t-butyldimethylsilyl)-2-propenyl]imino}-D-glucitol]
- ED50 (concentration required to lower the syncytia counts by 50%) [1]: 45

Structure (SMILES): CC(C)(C)[Si](C)(C)/C=C\CN1C[C@H](O)[C@@H](O)[C@H](O)[C@H]1CO [Example 59, 1,5-Dideoxy-1,5-{[(Z)-3-(t-butyldimethylsilyl)-2-propenyl]-imino-}-D-glucitol]
- ED50 (concentration required to lower the syncytia counts by 50%) [1]: 190

Structure (SMILES): CC[Si](C)(C)CN1C[C@H](O)[C@@H](O)[C@H](O)[C@H]1CO [Example 60, 1,5-Dideoxy-1,5-{[(Ethyldimethylsilyl)-Methyl]Imino}-D-Glucitol]
- ED50 (concentration required to lower the syncytia counts by 50%) [1]: 18
